From ChEMBL document CHEMBL5154805, “From tryptophan-based amides to tertiary amines: Optimization of a butyrylcholinesterase inhibitor series” (Eur J Med Chem, 2022)

Key:
Cholinesterase [1] = target: T1, Cholinesterase (Homo sapiens, UniProt P06276)
Description: Inhibition of recombinant human BChE using butyrylthiocholine iodide as substrate preincubated for 1 to 30 mins followed by substrate addition by Ellman's method

Acetylcholinesterase [2] = target: T2, Acetylcholinesterase (Homo sapiens, UniProt P22303); experiment: Inhibition of recombinant human AChE assessed as residual activity at 3 uM using acetylthiocholine iodide as substrate preincubated for 1 to 30 mins followed by substrate addition by Ellman's method relative to control; conditions: time 1-30 min
Acetylcholinesterase [3] = target: T2, Acetylcholinesterase; experiment: Inhibition of recombinant human AChE using acetylthiocholine iodide as substrate preincubated for 1 to 30 mins followed by substrate addition by Ellman's method
Acetylcholinesterase [4] = target: T2, Acetylcholinesterase; experiment: Inhibition of recombinant human AChE assessed as residual activity at 100 uM using acetylthiocholine iodide as substrate preincubated for 1 to 30 mins followed by substrate addition by Ellman's method relative to control; conditions: time 1-30 min
Cholinesterase [5] = target: T1, Cholinesterase; remark: listed apart in the source
Description: Binding affinity to human recombinant BChE assessed as decarbamoylation rate by measuring half life

Acetylcholinesterase [6] = target: T3, Acetylcholinesterase (Mus musculus, UniProt P21836); experiment: Inhibition of mouse recombinant AChE assessed as reduction in cholinesterase activity using acetylthiocholine iodide as substrate preincubated for 1 to 30 mins followed by substrate addition by Ellman's method
T3 sequence (P21836 whole entry): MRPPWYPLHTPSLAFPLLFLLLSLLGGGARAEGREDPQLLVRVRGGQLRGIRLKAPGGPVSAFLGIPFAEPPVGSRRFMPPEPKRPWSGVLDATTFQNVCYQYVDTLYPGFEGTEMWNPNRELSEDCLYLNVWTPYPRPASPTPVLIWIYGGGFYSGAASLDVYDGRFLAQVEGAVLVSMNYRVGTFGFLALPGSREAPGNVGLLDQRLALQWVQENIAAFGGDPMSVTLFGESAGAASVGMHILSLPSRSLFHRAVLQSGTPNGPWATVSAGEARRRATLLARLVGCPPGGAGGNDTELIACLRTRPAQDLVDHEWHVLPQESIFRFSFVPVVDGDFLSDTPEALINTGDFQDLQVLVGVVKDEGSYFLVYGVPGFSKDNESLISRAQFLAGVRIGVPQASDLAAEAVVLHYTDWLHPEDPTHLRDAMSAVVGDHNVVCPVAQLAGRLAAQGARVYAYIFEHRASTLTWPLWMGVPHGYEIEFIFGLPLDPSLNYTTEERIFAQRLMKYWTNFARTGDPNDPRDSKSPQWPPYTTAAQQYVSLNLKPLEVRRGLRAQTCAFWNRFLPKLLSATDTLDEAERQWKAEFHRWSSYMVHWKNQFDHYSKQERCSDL

[7] = target: Cholinesterases; ACHE & BCHE (Homo sapiens) (UniProt P06276+P22303); experiment: Selectivity ratio of IC50 for recombinant human AChE to IC50 for recombinant human BChE; format: protein assay
Cholinesterases; ACHE & BCHE (Homo sapiens), sequence (P06276 whole entry, looked up): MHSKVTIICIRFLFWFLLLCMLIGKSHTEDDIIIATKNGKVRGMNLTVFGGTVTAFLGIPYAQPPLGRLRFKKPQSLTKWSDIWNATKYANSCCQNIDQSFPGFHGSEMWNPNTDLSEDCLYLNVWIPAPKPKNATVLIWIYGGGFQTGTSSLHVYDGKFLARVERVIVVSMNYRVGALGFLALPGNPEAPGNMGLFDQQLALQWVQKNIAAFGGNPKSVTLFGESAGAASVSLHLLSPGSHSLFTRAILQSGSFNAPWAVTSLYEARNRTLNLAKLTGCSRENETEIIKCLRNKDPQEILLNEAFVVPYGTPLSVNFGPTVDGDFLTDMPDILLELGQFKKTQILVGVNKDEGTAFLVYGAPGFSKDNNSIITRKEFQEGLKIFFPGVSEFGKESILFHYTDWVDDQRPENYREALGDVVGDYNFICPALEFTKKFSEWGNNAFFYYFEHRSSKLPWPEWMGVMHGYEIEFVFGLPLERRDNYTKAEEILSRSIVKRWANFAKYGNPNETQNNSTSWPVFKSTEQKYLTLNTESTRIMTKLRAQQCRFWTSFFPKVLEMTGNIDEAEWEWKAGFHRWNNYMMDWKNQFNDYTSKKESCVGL
Cholinesterases; ACHE & BCHE (Homo sapiens), sequence (P22303 whole entry, looked up): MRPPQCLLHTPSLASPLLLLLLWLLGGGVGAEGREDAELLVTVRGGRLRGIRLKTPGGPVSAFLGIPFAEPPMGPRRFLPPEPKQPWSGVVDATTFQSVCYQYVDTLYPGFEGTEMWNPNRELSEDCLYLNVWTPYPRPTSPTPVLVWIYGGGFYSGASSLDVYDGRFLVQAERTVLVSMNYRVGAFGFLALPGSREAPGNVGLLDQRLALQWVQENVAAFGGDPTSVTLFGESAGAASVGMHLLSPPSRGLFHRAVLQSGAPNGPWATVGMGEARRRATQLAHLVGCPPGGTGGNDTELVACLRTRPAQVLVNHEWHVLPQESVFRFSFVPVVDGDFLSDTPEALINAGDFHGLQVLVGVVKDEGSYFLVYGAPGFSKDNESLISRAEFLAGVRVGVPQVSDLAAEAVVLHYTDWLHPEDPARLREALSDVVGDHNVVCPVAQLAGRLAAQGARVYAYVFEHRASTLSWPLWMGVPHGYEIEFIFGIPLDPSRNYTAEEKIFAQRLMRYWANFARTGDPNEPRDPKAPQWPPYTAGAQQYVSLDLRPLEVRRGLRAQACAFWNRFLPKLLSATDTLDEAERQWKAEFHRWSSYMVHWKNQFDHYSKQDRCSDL

T2 sequence (P22303 whole entry): as the sequence (P22303 whole entry, looked up) above
T1 sequence (P06276 whole entry): as the sequence (P06276 whole entry, looked up) above

| Structure (SMILES) | IC50 (Cholinesterase [1]) [nM] | Activity (Acetylcholinesterase [2]) [%] | also measured |
| --- | --- | --- | --- |
| CCCCN(CCOc1ccc2ccc(OC(=O)N(C)C)cc2c1)CCC1CCCCCC1 | 11.7 | > 50 |  |
| CCCCN(CCCc1c[nH]c2ccccc12)CCC1CCN(Cc2ccccc2)CC1 | 29.3 | > 50 | IC50 (Acetylcholinesterase [3]): 7840 nM |
| CCCCN(CCC1CCCCCC1)Cc1cc(O)c2ccccc2c1 | 4.7 | > 50 |  |
| c1ccc2c(CCCN(CCC3CCCCCC3)CCC3CCCCC3)c[nH]c2c1 | 4.9 | > 50 |  |
| CN(CCC1CCCCCC1)Cc1c(-c2nnn[nH]2)[nH]c2ccccc12 | 929 | > 50 |  |
| CN1CCN(CCC2CCCCCC2)C[C@@H]1Cc1c[nH]c2ccccc12 | 10.5 | > 50 | Activity (Acetylcholinesterase [4]): 39% |
| CCCCN(CCCc1c[nH]c2ccccc12)CCC1CCC(N(C)C)CC1 (stereo in doubt; 33a) [listing 1 of 2 here] |  | > 50 |  |
| CCCCN(CCc1c[nH]c2cc(OC(=O)N(C)C)ccc12)CCC1CCCCCC1 |  | > 50 | T1/2 (Cholinesterase [5]): 14.8 h |
| CCCCN(CCc1c[nH]c2ccc(O)cc12)CCC1CCCCCC1 | 33.5 | > 50 | Activity (Acetylcholinesterase [4]): 79% |
| CN(C)c1ccc(/C=C/CN(CCCc2c[nH]c3ccccc23)CCC2CCCCCC2)cc1 | 4.6 | > 50 | Activity (Acetylcholinesterase [4]): 54% |
| CCCCN(CCC1CCCCCC1)Cc1ccc(OC(=O)N(C)C)c2ccccc12 | 1.9 | > 50 | IC50 (Acetylcholinesterase [3]): 101 nM |
| CCCCN(CCC1CCCCCC1)Cc1c[nH]c2ncccc12 | 83 | > 50 | Activity (Acetylcholinesterase [4]): 57% |
| CCCCN(CCCc1c[nH]c2ccccc12)CCC1CCC(N(C)C)CC1 (stereo in doubt; 33a) [listing 2 of 2 here] | 205 |  |  |
| CCCCN(CCC1CCCCCC1)CCC1CCc2ccccc21 (centres undefined) | 6.5 | > 50 |  |
| CCCCN(CCc1c[nH]c2ccc(OC(=O)N(C)C)cc12)CCC1CCCCCC1 | 6.9 | > 50 |  |
| CCCCN(CCCc1c[nH]c2ccccc12)CCC1CCC(N(C)C)CC1 (stereo in doubt; 33b) [listing 1 of 2 here] | 214 |  |  |
| CCCCN(CCc1c[nH]c2cc(O)ccc12)CCC1CCCCCC1 |  | > 50 | IC50 (Acetylcholinesterase [3]): 70600 nM |
| CCCCN(CCC1CCCCCC1)Cc1cc2ccccc2cc1OC(=O)N(C)C | 2.2 | > 50 |  |
| CCCCN(CCc1cn(C(=O)N(C)C)c2ccccc12)CCC1CCCCCC1 | 0.87 | > 50 |  |
| CN(C)C1CCC(CCN(CCCc2c[nH]c3ccccc23)CCC2CCCCCC2)CC1 (stereo in doubt; 32b) [listing 1 of 2 here] |  | > 50 |  |
| CN(C)C1CCC(CCN(CCCc2c[nH]c3ccccc23)CCC2CCCCCC2)CC1 (stereo in doubt; 32b) [listing 2 of 2 here] | 4.1 |  | IC50 (Acetylcholinesterase [3]): 8570 nM |
| CCCCN(CCC1CCCCCC1)Cc1c[nH]c2ccccc12 | 13.3 | > 50 |  |
| c1ccc2c(c1)CCC2CCN(CCCc1c[nH]c2ccccc12)CCC1CCCCCC1 (centres undefined) | 6.3 | > 50 |  |
| CCCCN(CCOc1cccc2c(OC(=O)N(C)C)cccc12)CCC1CCCCCC1 | 5.8 | > 50 | IC50 (Acetylcholinesterase [3]): 47.9 nM |
| CCCCN(CCC1CCCCCC1)Cc1cc(OC(=O)N(C)C)c2ccccc2c1 | 2.4 | > 50 |  |
| CCCCN(CCc1c[nH]c2c(OC(=O)C(C)C)cccc12)CCC1CCCCCC1 |  | > 50 | IC50 (Acetylcholinesterase [3]): 1370 nM; T1/2 (Cholinesterase [5]): 15.2 h |
| CN(C)C1CCC(CCN(CCCc2c[nH]c3ccccc23)CCC2CCCCCC2)CC1 (stereo in doubt; 32a) [listing 1 of 2 here] | 1.9 |  | IC50 (Acetylcholinesterase [3]): 12600 nM |

| Structure (SMILES) | IC50 (Cholinesterase [1]) [nM] | Activity (Acetylcholinesterase [2]) [%] | also measured |
| --- | --- | --- | --- |
| CCCCN(CCC1CCCCCC1)Cc1cn(OC(=O)N(C)C)c2ccccc12 | 133 | > 50 | IC50 (Acetylcholinesterase [3]): 152 nM |
| CCCCN(CCCc1c[nH]c2ccccc12)CCC1CCC(N(C)C)CC1 (stereo in doubt; 33b) [listing 2 of 2 here] |  | > 50 |  |
| CCCCN(CCCc1c[nH]c2ccccc12)CCC1CCCCCC1 | 2.4 | > 50 |  |
| CN(CCC1CCCCCC1)Cc1cccc2[nH]ccc12 | 349 | > 50 |  |
| c1ccc2c(CCNCCC3CCCCCC3)c[nH]c2c1 | 31.5 | > 50 |  |
| CN(CCC1CCCCCC1)Cc1c[nH]c2ccccc12 | 60.4 | > 50 | IC50 (Acetylcholinesterase [3]): 25200 nM |
| CCCCN(CCCc1c[nH]c2ccc(F)cc12)CCC1CCCCCC1 | 6 | > 50 |  |
| CCCCN(CCCc1cccc2ccccc12)CCC1CCCCCC1 | 1.9 | > 50 |  |
| CN(CCC1CCN(Cc2ccccc2)CC1)Cc1c[nH]c2ccccc12 | 1710 | > 50 | IC50 (Acetylcholinesterase [3]): 33900 nM |
| CN(C)C1CCC(CCN(CCCc2c[nH]c3ccccc23)CCC2CCCCCC2)CC1 (stereo in doubt; 32a) [listing 2 of 2 here] |  | > 50 |  |
| CCCCN1CN(CCC2CCCCCC2)C[C@@H]1Cc1c[nH]c2ccccc12 | 8.7 | > 50 | IC50 (Acetylcholinesterase [6]): 11000 nM; Ratio IC50 [7]: > 1000 |
| CCCCN(CCC1CCCCCC1)Cc1c[nH]c2cc(Br)ccc12 | 3.6 | > 50 |  |
| CCCCN(CCC1CCCCCC1)Cc1cc2ccccc2cc1O | 33.7 | > 50 | IC50 (Acetylcholinesterase [3]): 18600 nM |
| CCCCN(CCCc1cc2ccccc2[nH]1)CCC1CCCCCC1 | 4.7 | > 50 | Activity (Acetylcholinesterase [4]): 74% |
| CCCCN(CCc1c[nH]c2c(O)cccc12)CCC1CCCCCC1 |  | > 50 | Activity (Acetylcholinesterase [4]): 69% |
| CCCCN[C@H](CNCCC1CCCCCC1)Cc1c[nH]c2ccccc12 | 10.1 | > 50 | IC50 (Acetylcholinesterase [6]): 12400 nM |
| CCCCN(CCCc1ccc2ccccc2c1)CCC1CCCCCC1 | 5.1 | > 50 | Activity (Acetylcholinesterase [4]): 56% |
| CCCCN1CCN(CCCC2CCCCCC2)C[C@@H]1Cc1c[nH]c2ccccc12 | 5 | > 50 | IC50 (Acetylcholinesterase [6]): 10300 nM; Ratio IC50 [7]: > 1000 |
| CCCCN(CCc1c(-c2ccccc2O)[nH]c2ccccc12)CCC1CCCCCC1 | 16.8 | > 50 |  |
| CCCCN(C)[C@@H](Cc1c[nH]c2ccccc12)CN(C)CCC1CCCCCC1 | 3 | > 50 | IC50 (Acetylcholinesterase [6]): 23400 nM |
| CCCCN(CCc1c(-c2ccccc2OC(=O)N(C)C)[nH]c2ccccc12)CCC1CCCCCC1 | 5.4 | > 50 |  |
| CCCCN(CCc1c[nH]c2ccccc12)CCC1CCCCCC1 | 5 | > 50 |  |
| CCCCN(CCCC1CCNc2ccccc21)CCC1CCCCCC1 (centres undefined) | 54.8 | > 50 | Activity (Acetylcholinesterase [4]): 65% |
| CCCCN(CCC1CCCCCC1)Cc1c[nH]c2cc(C#N)ccc12 | 83.7 | > 50 |  |
| CCCC[N+]([O-])(CCc1c[nH]c2ccccc12)CCC1CCCCCC1 (centres undefined) | 107 | > 50 | Activity (Acetylcholinesterase [4]): 86% |
| CCCC[N+](C)(CCCc1c[nH]c2ccccc12)CCC1CCCCCC1 (centres undefined) | 2.3 | > 50 | IC50 (Acetylcholinesterase [3]): 23200 nM |
| CN(CCc1c[nH]c2ccccc12)CCC1CCCCCC1 |  | > 50 |  |
